PubChem BioAssay (NCI)
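Exposure lasted 48 hours, with cells grown in 96-well plates and compounds tested at five concentrations. Definition used: TGI = concentration required for complete inhibition of growth.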

What was measured:
Assay in all cases: NCI anticancer screen, dose series, 48 h
786-0 renal = system: 786-0 renal
A498 renal = system: A498 renal
A549 NSCLC = system: A549 NSCLC
ACHN renal = system: ACHN renal
BT-549 breast = system: BT-549 breast
CAKI-1 renal = system: CAKI-1 renal
CCRF-CEM leukemia = system: CCRF-CEM leukemia
COLO 205 colon = system: COLO 205 colon
DU-145 prostate = system: DU-145 prostate
EKVX NSCLC = system: EKVX NSCLC
HCC-2998 colon = system: HCC-2998 colon
HCT-15 colon = system: HCT-15 colon
HL-60(TB) leukemia = system: HL-60(TB) leukemia
HOP-62 NSCLC = system: HOP-62 NSCLC
HOP-92 NSCLC = system: HOP-92 NSCLC
HS 578T breast = system: HS 578T breast
HT29 colon = system: HT29 colon
IGROV1 ovarian = system: IGROV1 ovarian
K-562 leukemia = system: K-562 leukemia
KM12 colon = system: KM12 colon
LOX IMVI melanoma = system: LOX IMVI melanoma
M14 melanoma = system: M14 melanoma
MALME-3M melanoma = system: MALME-3M melanoma
MCF7 breast = system: MCF7 breast
MDA-MB-231 breast = system: MDA-MB-231 breast
MDA-MB-435 = system: MDA-MB-435
MDA-N = system: MDA-N
MOLT-4 leukemia = system: MOLT-4 leukemia
NCI-H226 lung = system: NCI-H226 lung
NCI-H23 lung = system: NCI-H23 lung
NCI-H460 lung = system: NCI-H460 lung
NCI-H522 lung = system: NCI-H522 lung
NCI/ADR-RES ovarian = system: NCI/ADR-RES ovarian
OVCAR-3 ovarian = system: OVCAR-3 ovarian
OVCAR-4 ovarian = system: OVCAR-4 ovarian
OVCAR-5 ovarian = system: OVCAR-5 ovarian
OVCAR-8 ovarian = system: OVCAR-8 ovarian
PC-3 prostate = system: PC-3 prostate
RPMI-8226 leukemia = system: RPMI-8226 leukemia
RXF 393 renal = system: RXF 393 renal
SF-268 CNS = system: SF-268 CNS
SF-295 CNS = system: SF-295 CNS
SF-539 CNS = system: SF-539 CNS
SK-MEL-2 melanoma = system: SK-MEL-2 melanoma
SK-MEL-28 melanoma = system: SK-MEL-28 melanoma
SK-MEL-5 melanoma = system: SK-MEL-5 melanoma
SK-OV-3 ovarian = system: SK-OV-3 ovarian
SN12C renal = system: SN12C renal
SNB-19 CNS = system: SNB-19 CNS
SNB-75 CNS = system: SNB-75 CNS
SR leukemia = system: SR leukemia
SW-620 colon = system: SW-620 colon
T-47D breast = system: T-47D breast
TK-10 renal = system: TK-10 renal
U251 CNS = system: U251 CNS
UACC-257 melanoma = system: UACC-257 melanoma
UACC-62 melanoma = system: UACC-62 melanoma
UO-31 renal = system: UO-31 renal
HCT-116 colon = system: HCT-116 colon

Nc1ccc(-c2nc3ccccc3s2)cc1I
TGI (786-0 renal): > 100 µM | TGI (A498 renal): > 90.8 µM | TGI (A549 NSCLC): > 100 µM | TGI (ACHN renal): > 100 µM | TGI (BT-549 breast): > 100 µM | TGI (CAKI-1 renal): > 100 µM | TGI (CCRF-CEM leukemia): > 46.4 µM | TGI (COLO 205 colon): > 100 µM | TGI (DU-145 prostate): > 100 µM | TGI (EKVX NSCLC): > 100 µM | TGI (HCC-2998 colon): > 100 µM | TGI (HCT-15 colon): > 100 µM | TGI (HL-60(TB) leukemia): > 100 µM | TGI (HOP-62 NSCLC): > 100 µM | TGI (HOP-92 NSCLC): > 54.5 µM | TGI (HS 578T breast): > 100 µM | TGI (HT29 colon): > 100 µM | TGI (IGROV1 ovarian): > 100 µM | TGI (K-562 leukemia): > 100 µM | TGI (KM12 colon): > 100 µM | TGI (LOX IMVI melanoma): > 100 µM | TGI (M14 melanoma): > 100 µM | TGI (MALME-3M melanoma): > 100 µM | TGI (MCF7 breast): > 100 µM | TGI (MDA-MB-231 breast): > 100 µM | TGI (MDA-MB-435): > 100 µM | TGI (MDA-N): > 100 µM | TGI (MOLT-4 leukemia): > 46.4 µM | TGI (NCI-H226 lung): > 100 µM | TGI (NCI-H23 lung): > 100 µM | TGI (NCI-H460 lung): > 100 µM | TGI (NCI-H522 lung): > 100 µM | TGI (NCI/ADR-RES ovarian): > 100 µM | TGI (OVCAR-3 ovarian): > 100 µM | TGI (OVCAR-4 ovarian): > 100 µM | TGI (OVCAR-5 ovarian): > 100 µM | TGI (OVCAR-8 ovarian): > 100 µM | TGI (PC-3 prostate): > 100 µM | TGI (RPMI-8226 leukemia): > 100 µM | TGI (RXF 393 renal): > 100 µM | TGI (SF-268 CNS): > 100 µM | TGI (SF-295 CNS): > 100 µM | TGI (SF-539 CNS): > 100 µM | TGI (SK-MEL-2 melanoma): > 100 µM | TGI (SK-MEL-28 melanoma): > 100 µM | TGI (SK-MEL-5 melanoma): > 100 µM | TGI (SK-OV-3 ovarian): > 100 µM | TGI (SN12C renal): > 100 µM | TGI (SNB-19 CNS): > 100 µM | TGI (SNB-75 CNS): 99.4 µM | TGI (SR leukemia): > 100 µM | TGI (SW-620 colon): > 100 µM | TGI (T-47D breast): > 100 µM | TGI (TK-10 renal): > 100 µM | TGI (U251 CNS): > 88.5 µM | TGI (UACC-257 melanoma): > 100 µM | TGI (UACC-62 melanoma): > 100 µM | TGI (UO-31 renal): > 100 µM

O=[N+]([O-])c1cc(C(F)(F)F)ccc1S(=O)(=O)N[C@@H]1CCCC[C@H]1NS(=O)(=O)c1ccc(C(F)(F)F)cc1[N+](=O)[O-]
TGI (786-0 renal): > 42.2 µM | TGI (A498 renal): > 23.7 µM | TGI (A549 NSCLC): > 31.3 µM | TGI (ACHN renal): 11.2 µM | TGI (BT-549 breast): 8.16 µM | TGI (CAKI-1 renal): 10 µM | TGI (CCRF-CEM leukemia): 7.87 µM | TGI (COLO 205 colon): 6.77 µM | TGI (DU-145 prostate): > 75.7 µM | TGI (EKVX NSCLC): 93.3 µM | TGI (HCC-2998 colon): > 39.9 µM | TGI (HCT-116 colon): 20.1 µM | TGI (HCT-15 colon): 10.1 µM | TGI (HL-60(TB) leukemia): 3.74 µM | TGI (HOP-62 NSCLC): 30.9 µM | TGI (HOP-92 NSCLC): 8.31 µM | TGI (HS 578T breast): 8.27 µM | TGI (HT29 colon): 22.7 µM | TGI (IGROV1 ovarian): 7.5 µM | TGI (K-562 leukemia): > 36 µM | TGI (KM12 colon): 12.1 µM | TGI (LOX IMVI melanoma): 3.24 µM | TGI (M14 melanoma): 8.95 µM | TGI (MALME-3M melanoma): 8.05 µM | TGI (MCF7 breast): 5.2 µM | TGI (MDA-MB-231 breast): 8.02 µM | TGI (MDA-MB-435): 8.07 µM | TGI (MDA-N): 21.6 µM | TGI (NCI-H226 lung): > 46.6 µM | TGI (NCI-H23 lung): 6.92 µM | TGI (NCI-H460 lung): > 100 µM | TGI (NCI-H522 lung): 4.76 µM | TGI (NCI/ADR-RES ovarian): 10 µM | TGI (OVCAR-3 ovarian): 7.07 µM | TGI (OVCAR-4 ovarian): 29.2 µM | TGI (OVCAR-5 ovarian): > 100 µM | TGI (OVCAR-8 ovarian): 20.2 µM | TGI (PC-3 prostate): 14.1 µM | TGI (RPMI-8226 leukemia): > 22.3 µM | TGI (RXF 393 renal): > 28.1 µM | TGI (SF-268 CNS): 7.24 µM | TGI (SF-295 CNS): 9.38 µM | TGI (SF-539 CNS): 3.56 µM | TGI (SK-MEL-2 melanoma): 9.88 µM | TGI (SK-MEL-28 melanoma): 33.3 µM | TGI (SK-MEL-5 melanoma): 8.15 µM | TGI (SK-OV-3 ovarian): 71.7 µM | TGI (SN12C renal): 12.6 µM | TGI (SNB-19 CNS): > 31.6 µM | TGI (SNB-75 CNS): 7.46 µM | TGI (SR leukemia): > 26.2 µM | TGI (SW-620 colon): 53.8 µM | TGI (T-47D breast): > 50.7 µM | TGI (TK-10 renal): > 100 µM | TGI (U251 CNS): 17.1 µM | TGI (UACC-257 melanoma): > 100 µM | TGI (UACC-62 melanoma): 13.4 µM | TGI (UO-31 renal): > 23.2 µM
